The record followed here is patent US12435066B2, “Substituted tricyclic compounds” (LUPIN LIMITED, priority 2019, dated 2025).

Structures are written as SMILES.

Test [1] has as its system pERK in DLD1 cells. In words: ERK phosphorylation assay after EGF stimulation. The format is cell-based. The following applies: Homo sapiens, DLD-1, compound 2 h, 200 ng/ml hEGF 5 minutes, alphascreen pERK, read-out: ERK phosphorylation inhibition IC50. As for the experimental part: Example-128: ERK Phosphorylation Assay Protocol
Compounds were tested for their ability to inhibit pERK after EGF stimulation in DLD1 cells. Cells were seeded at 0.2 million cells per well in 96 well cell binding tissue culture plate in 100 μL complete media and were allowed to settle overnight (16 to 20 h). On the following day, cells were treated with various concentrations of test compounds for 2 h followed by stimulation with 200 ng/ml hEGF (diluted in PBS) for 5 minutes. Cells were then washed once with PBS and lysed in freshly prepared lysis buffer (provided with alphascreen surefire ERK1/2 p-T202/Y204 assay kit, cat no: TGRESB10K, Perkin Elmer). Lysis was carried out in plate shaker for 10-15 mins. Lysate was transferred to […] white opti-plate (Perkin Elmer) and alphascreen for pERK was carried out as per manufacturer's instructions. Plate was read after 2 h incubation in plate shaker at […] 300 RPM, 25-28° C.
(In general: In Alpha technology, singlet oxygen from a donor bead excites a nearby acceptor bead.)

The target in test [2] is T1, hSOS1 and hKRASG12C (Homo sapiens, UniProt Q07889).
T1 sequence (Q07889 564-1049): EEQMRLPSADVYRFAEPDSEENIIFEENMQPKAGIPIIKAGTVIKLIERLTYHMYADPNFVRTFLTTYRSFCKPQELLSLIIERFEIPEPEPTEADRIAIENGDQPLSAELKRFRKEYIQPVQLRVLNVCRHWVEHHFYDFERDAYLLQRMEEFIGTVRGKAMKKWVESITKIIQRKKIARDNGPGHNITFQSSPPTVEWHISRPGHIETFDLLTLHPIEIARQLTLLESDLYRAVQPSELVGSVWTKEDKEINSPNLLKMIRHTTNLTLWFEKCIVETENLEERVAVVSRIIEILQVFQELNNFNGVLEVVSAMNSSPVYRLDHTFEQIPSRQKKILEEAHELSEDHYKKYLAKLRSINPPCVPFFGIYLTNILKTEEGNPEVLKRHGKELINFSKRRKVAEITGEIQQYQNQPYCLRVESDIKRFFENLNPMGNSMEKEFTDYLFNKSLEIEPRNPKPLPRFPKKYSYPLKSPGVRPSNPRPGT
In words: biochemical.
Protocol: Interaction assay was conducted to evaluate the ability of the compounds to disrupt the protein-protein interactions between hSOS1 and hKRASG12C. Inhibitory effect of compounds on GST-hSOS1, 564-1049aa expressed and purified in-house and HIS-hKRASG12C (R06-32DH, SignalChem) interaction was assessed using HTRF detection technology in biochemical assay. Compounds were pre-incubated with 10-50 nM working solution of hSOS1 per well of a 384 well plate (Perkin Elmer, Cat #6007290) for 10 min at 20° C. in the assay buffer containing 5 mM HEPES, pH 7.4, 150 mM NaCl, 10 mM EDTA, 1 mM DTT, 0.05% BSA fraction V and 0.0025% Igepal. Reaction was initiated by adding 100-300 nM working solution of hKRASG12C in assay buffer. Total assay volume was 15 μL. Reaction was continued for 30-60 min at 20° C. Then detection solution containing MAb Anti-GST-d2 (#61GSTDLA, Cisbio BioAssays) and MAb Anti-HIS-Tb (#61HISTLA, Cisbio BioAssays), all prepared in HTRF detection buffer (#61DB10RDF, Cisbio BioAssays) was added and further incubated for 30-60 min at 20° C. HTRF signal was recorded in PHERAStar microplate reader. Ratio of signal obtained at 665 nm and 620 nm was used to compute the percent inhibition of compound utilizing the following formula:
Positive control=hSOS1+hKRASG12C+MAb Anti-GST-d2+Mab Anti-HIS-Tb Negative control=hKRASG12C+MAb Anti-GST-d2+MAb Anti-HIS-Tb

The target of test [3] is T2, hSOS1 mediated nucleotide exchange on hKRASG12C (Homo sapiens, UniProt Q07889).
T2 sequence (Q07889 564-1049): T1 sequence (Q07889 564-1049)
As to the kind of experiment: biochemical.

Regarding `Cc1nc(N[C@H](C)c2cc(N)cc(C(F)(F)F)c2)c2cc(N3CCC(C)(O)C3)c3c(c2n1)CCC3` (single isomer, unassigned) [Compound 55a], the IC50 (commonly the concentration needed to halve the response being measured) in test [1] was in the range of 1 to 200 nM; in test [2], 11 to 20 nM; in test [3], 31 to 70 nM.

Consider `COC1CCN(c2cc3c(N[C@H](C)c4cc(N)cc(C(F)(F)F)c4)nc(C)nc3c3c2CCC3)CC1` [Compound 1, (R)—N-(1-(3-amino-5-(trifluoromethyl)phenyl)ethyl)-6-(4-methoxypiperidin-1-yl)-2-methyl-8,9-dihydro-7H-cyclopenta[h]quinazolin-4-amine], for which the figures for the IC50 in test [1] and in test [2] were 1 to 200 nM and 11 to 20 nM, respectively.

With `Cc1nc(N[C@H](C)c2cc(N)cc(C(F)F)c2)c2cc(N3CCOCC3)c3c(c2n1)CC(C)(C)O3` [Compound 115, (R)—N-(1-(3-amino-5-(difluoromethyl)phenyl)ethyl)-2,8,8-trimethyl-6-morpholino-8,9-dihydrofuro[2,3-h]quinazolin-4-amine], the IC50 in test [1] lay within 1 to 200 nM; in test [2], 1 to 10 nM; in test [3], 31 to 70 nM.

For `Cc1nc(NC(C)c2cc(N)cc(C(F)F)c2)c2cc(N3CC4(COC4)C3)c3c(c2n1)CCC3` (racemic) [Compound 78, (R/S)—N-(1-(3-amino-5-(difluoromethyl)phenyl)ethyl)-2-methyl-6-(2-oxa-6-azaspiro[3.3]heptan-6-yl)-8,9-dihydro-7H-cyclopenta[h]quinazolin-4-amine], the IC50 lay within 1 to 200 nM in test [1], 1 to 10 nM in test [2] and 1 to 30 nM in test [3].

With `COc1cc2c(N[C@H](C)c3cccc(C(F)(F)CO)c3F)nc(C)nc2c2c1N(C)CCO2` [Compound 121, (R)-2,2-difluoro-2-(2-fluoro-3-(1-((6-methoxy-2,7-dimethyl-8,9-dihydro-7H-[1,4]oxazino[3,2-h]quinazolin-4-yl)amino)ethyl)phenyl)ethan-1-ol], the figures for the IC50 in test [1], in test [2] and in test [3] were 1 to 200 nM, 1 to 10 nM and 1 to 30 nM, respectively.

`Cc1nc(N[C@H](C)c2cccc(C(F)(F)C(C)(C)O)c2F)c2cc(N3C[C@@H]4[C@@H](CO)[C@@H]4C3)c3c(c2n1)CCC3` [Compound 58, 1,1-difluoro-1-(2-fluoro-3-((R)-1-((6-((1R,5S,6R)-6-(hydroxymethyl)-3-azabicyclo[3.1.0]hexan-3-yl)-2-methyl-8,9-dihydro-7H-cyclopenta[h]quinazolin-4-yl)amino)ethyl)phenyl)-2-methylpropan-2-ol]: the IC50 lay within 1 to 200 nM in test [1], 1 to 10 nM in test [2] and 1 to 30 nM in test [3].

As for `COCC1CN(c2cc3c(N[C@H](C)c4cc(N)cc(C(F)(F)F)c4)nc(C)nc3c3c2CCC3)C1` [Compound 26, (R)—N-(1-(3-amino-5-(trifluoromethyl)phenyl)ethyl)-6-(3-(methoxymethyl)azetidin-1-yl)-2-methyl-8,9-dihydro-7H-cyclopenta[h]quinazolin-4-amine], the IC50 in test [1] was 1 to 200 nM; in test [2], 1 to 10 nM; in test [3] it was 31 to 70 nM.

As for `Cc1nc(N[C@H](C)c2cc(N)cc(C(F)(F)F)c2)c2cc(O[C@H]3CCOC3)c3oc(C)cc3c2n1` [Compound 111], the figures for the IC50 in test [1] and in test [2] were 201 to 500 nM and 11 to 20 nM, respectively.

`COc1cc2c(N[C@H](C)c3cc(N)cc(C(F)(F)F)c3)nc(C)nc2c2c1CCC2` [Compound 108, (R)—N-(1-(3-amino-5-(trifluoromethyl)phenyl)ethyl)-6-methoxy-2-methyl-8,9-dihydro-7H-cyclopenta[h]quinazolin-4-amine] returned an IC50 in test [2] of 1 to 10 nM.

As for `Cc1nc(N[C@H](C)c2cc(N)cc(C(F)(F)F)c2)c2cc(N3CCOCC3)c3c(c2n1)CC(C)O3` (single isomer, unassigned) [Compound 117b], the IC50 in test [1] lay within 1 to 200 nM; in test [2] it was 11 to 20 nM.

With `Cc1nc(N[C@H](C)c2cc(N)cc(C(F)(F)F)c2)c2cc(N[C@H]3CCOC3)c3c(c2n1)CCC3` [Compound 19, N^4—((R)-1-(3-amino-5-(trifluoromethyl)phenyl)ethyl)-2-methyl-N^6—((S)-tetrahydrofuran-3-yl)-8,9-dihydro-7H-cyclopenta[h]quinazoline-4,6-diamine], the concentration for half-maximal inhibition (IC50) in test [1] lay within 1 to 200 nM; in test [2], 1 to 10 nM.

`Cc1nc(N[C@H](C)c2cc(N)cc(C(F)(F)F)c2)c2cc(O[C@H]3CCOC3)c3c(c2n1)CC(C)(C)O3` [Compound 112, N—((R)-1-(3-amino-5-(trifluoromethyl)phenyl)ethyl)-2,8,8-trimethyl-6-(((S)-tetrahydrofuran-3-yl)oxy)-8,9-dihydrofuro[2,3-h]quinazolin-4-amine]: the IC50 in test [1] was 1 to 200 nM; in test [2], 11 to 20 nM.

On to `Cc1cc(N)cc(C(C)Nc2nc(C)nc3c4c(c(N5CC6(COC6)C5)cc23)CCC4)c1` (single isomer, unassigned) [Compound 20, N-(1-(3-amino-5-methylphenyl)ethyl)-2-methyl-6-(2-oxa-6-azaspiro[3.3]heptan-6-yl)-8,9-dihydro-7H-cyclopenta[h]quinazolin-4-amine], for which the IC50 lay within 201 to 500 nM in test [1] and 1 to 10 nM in test [2].

For `Cc1nc(N[C@H](C)c2cc(N)cc(C(F)(F)F)c2)c2cc(C3CCN(C)CC3)c3c(c2n1)CCC3` [Compound 101, (R)—N-(1-(3-amino-5-(trifluoromethyl)phenyl)ethyl)-2-methyl-6-(1-methylpiperidin-4-yl)-8,9-dihydro-7H-cyclopenta[h]quinazolin-4-amine], the IC50 in test [1] is 1 to 200 nM; in test [2], 1 to 10 nM.

In turn, `Cc1nc(N[C@H](C)c2cc(N)cc(C(F)(F)F)c2)c2cc(N3CCN(C)CC3)c3c(c2n1)CCC3` [Compound 46, (R)—N-(1-(3-amino-5-(trifluoromethyl)phenyl)ethyl)-2-methyl-6-(4-methylpiperazin-1-yl)-8,9-dihydro-7H-cyclopenta[h]quinazolin-4-amine] displayed an IC50 in test [2] of 1 to 10 nM.

Regarding `Cc1nc(N[C@H](C)c2cc(N)cc(C(F)(F)F)c2)c2cc(N3CC[C@@H](O)C3)c3c(c2n1)CCC3` [Compound 44, (R)-1-(4-(((R)-1-(3-amino-5-(trifluoromethyl)phenyl)ethyl)amino)-2-methyl-8,9-dihydro-7H-cyclopenta[h]quinazolin-6-yl)pyrrolidin-3-ol], the values for the IC50 in test [1] and in test [2] were 1 to 200 nM and 11 to 20 nM, respectively.

With `Cc1nc(NC(C)c2cc(N)cc(C(F)F)c2)c2cc(N3CCOCC3)c3c(c2n1)CCC3` (single isomer, unassigned) [Compound 77, (R/S)—N-(1-(3-amino-5-(difluoromethyl)phenyl)ethyl)-2-methyl-6-morpholino-8,9-dihydro-7H-cyclopenta[h]quinazolin-4-amine], the IC50 in test [1] was in the range of 1 to 200 nM; in test [2] it was 1 to 10 nM.

Turning to `Cc1nc(N[C@H](C)c2cc(N)cc(C(F)(F)F)c2)c2cc(NC3COC3)c3c(c2n1)CCC3` [Compound 28, (R)—N^4-(1-(3-amino-5-(trifluoromethyl)phenyl)ethyl)-2-methyl-N^6-(oxetan-3-yl)-8,9-dihydro-7H-cyclopenta[h]quinazoline-4,6-diamine], the IC50 in test [2] lay in the range of 1 to 10 nM; in test [3] it was 31 to 70 nM.

Consider `Cc1nc(N[C@H](C)c2cc(N)cc(C(F)(F)F)c2)c2cc(NC3CCOCC3)c3c(c2n1)CCC3` [Compound 21, (R)—N^4-(1-(3-amino-5-(trifluoromethyl)phenyl)ethyl)-2-methyl-N^6-(tetrahydro-2H-pyran-4-yl)-8,9-dihydro-7H-cyclopenta[h]quinazoline-4,6-diamine], for which the IC50 in test [1] lay in the range of 201 to 500 nM; in test [2] it was 11 to 20 nM.

Turning to `COC[C@H]1CN(c2cc3c(N[C@H](C)c4cc(N)cc(C(F)(F)F)c4)nc(C)nc3c3c2CCC3)CCO1` [Compound 27, N—((R)-1-(3-amino-5-(trifluoromethyl)phenyl)ethyl)-6-((R)-2-(methoxymethyl)morpholino)-2-methyl-8,9-dihydro-7H-cyclopenta[h]quinazolin-4-amine], the values for the IC50 in test [1] and in test [2] were 1 to 200 nM and 1 to 10 nM, respectively.

On to `Cc1nc(N[C@H](C)c2cc(N)cc(C(F)(F)F)c2)c2cc(N3C[C@@H](C)O[C@@H](C)C3)c3c(c2n1)CCC3` [Compound 17, N—((R)-1-(3-amino-5-(trifluoromethyl)phenyl)ethyl)-6-((2S,6R)-2,6-dimethylmorpholino)-2-methyl-8,9-dihydro-7H-cyclopenta[h]quinazolin-4-amine], for which the IC50 in test [2] was 11 to 20 nM.

For `Cc1nc(N[C@H](C)c2cc(N)cc(C(F)(F)F)c2)c2cc(O[C@H]3CCOC3)c3c(c2n1)CCC3` [Compound 109, N—((R)-1-(3-amino-5-(trifluoromethyl)phenyl)ethyl)-2-methyl-6-(((S)-tetrahydrofuran-3-yl)oxy)-8,9-dihydro-7H-cyclopenta[h]quinazolin-4-amine], the figures for the IC50 in test [1] and in test [2] were 201 to 500 nM and 11 to 20 nM, respectively.
